# Source: PubChem BioAssay (NCI)
#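 Method: 48-hour compound exposure of cells in 96-well plates, five concentrations, linear interpolation of endpoints. GI50 marks 50% less growth. TGI marks complete inhibition of growth.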
# How the values were obtained:
# Assay in all cases: growth of human tumour cells (NCI), 48 h
# UACC-257 melanoma = test system: UACC-257 melanoma
# DU-145 prostate = test system: DU-145 prostate
# CCRF-CEM leukemia = test system: CCRF-CEM leukemia
# SF-268 CNS = test system: SF-268 CNS
# BT-549 breast = test system: BT-549 breast
# EKVX NSCLC = test system: EKVX NSCLC
# KM12 colon = test system: KM12 colon
# NCI-H522 lung = test system: NCI-H522 lung
# IGROV1 ovarian = test system: IGROV1 ovarian
SMILES,TGI (UACC-257 melanoma),TGI (DU-145 prostate),TGI (CCRF-CEM leukemia),TGI (SF-268 CNS),TGI (BT-549 breast),TGI (EKVX NSCLC),TGI (KM12 colon),TGI (NCI-H522 lung),TGI (IGROV1 ovarian),GI50 (DU-145 prostate),GI50 (KM12 colon)
CCOC(=O)c1cc(I)c(-c2cc(C)no2)n1C,> 100 µM,> 100 µM,> 100 µM,> 100 µM,> 100 µM,> 100 µM,49.3 µM,> 100 µM,–,–,–
CC1(C)C(=O)c2ccccc2OC1N1CCN(C2Oc3ccccc3C(=O)C2(C)C)CC1 (stereo not drawn),–,> 100 µM,> 100 µM,> 100 µM,> 100 µM,> 100 µM,> 100 µM,> 100 µM,> 100 µM,–,–
O=c1c2c3c(sc2nc2n1N=C(c1ccc(Cl)cc1)CS2)CCCC3,> 100 µM,> 100 µM,> 100 µM,> 100 µM,> 100 µM,> 100 µM,> 100 µM,> 100 µM,> 100 µM,–,–
COC(OC)C1OCC(n2cc(F)c(=O)[nH]c2=O)C1O (stereo not drawn),> 100 µM,> 100 µM,> 100 µM,> 100 µM,> 100 µM,> 100 µM,> 100 µM,> 100 µM,> 100 µM,–,–
O=C1c2ccccc2C(=O)c2sc(Nc3ccccc3C(F)(F)F)nc21,32.4 µM,31.7 µM,> 100 µM,30.1 µM,–,55.1 µM,27.4 µM,> 100 µM,34.5 µM,–,–
O=c1[nH]c(=O)n(C2CC(O)C(CO)O2)cc1NN=NCCCc1ccccc1 (stereo not drawn),> 100 µM,> 100 µM,> 100 µM,> 100 µM,–,> 100 µM,> 100 µM,–,> 100 µM,–,–
CC(=O)OCC1OC(OCCCCCCO)C(OC(C)=O)C(OC(C)=O)C1OC(C)=O (stereo not drawn),> 100 µM,–,> 100 µM,> 100 µM,> 100 µM,> 100 µM,> 100 µM,> 100 µM,> 100 µM,–,–
CC(=O)OCc1cncn1S(=O)(=O)c1ccc(C)cc1,> 100 µM,> 100 µM,> 100 µM,> 100 µM,> 100 µM,> 100 µM,> 100 µM,> 100 µM,> 100 µM,–,–
CCN(CC)C(=S)Nc1ccc(-c2cc3ccc(O)cc3oc2=O)cc1,48.4 µM,> 100 µM,> 100 µM,> 100 µM,85 µM,> 100 µM,> 100 µM,43.7 µM,> 100 µM,–,–
O=[N+]([O-])c1ccc(N/N=C/CC(O)(C(F)(F)F)C(F)(F)F)c([N+](=O)[O-])c1,> 10 µM,> 10 µM,> 10 µM,> 10 µM,–,> 10 µM,> 10 µM,> 10 µM,> 10 µM,–,–
COC(=O)C1=C(OC(=O)/C=C/c2ccccc2)C(C(=O)OC)[C@@]2(O)[C@@H](C(=O)OC)[C@H](C)C[C@@H]1[C@@H]2C(=O)OC (stereo partly drawn),90.9 µM,> 100 µM,> 100 µM,92 µM,56.1 µM,65.2 µM,> 100 µM,21 µM,63.3 µM,–,–
O=[N+]([O-])c1ccc(C(Nc2ccccc2)P(c2ccccc2)c2ccccc2)cc1 (stereo not drawn),> 100 µM,> 100 µM,–,> 100 µM,> 100 µM,> 100 µM,> 100 µM,> 100 µM,> 100 µM,–,–
COC(=O)CCc1ccc2c(c1)C(=O)CC2,> 100 µM,> 100 µM,> 100 µM,> 100 µM,–,> 100 µM,–,> 100 µM,> 100 µM,–,–
CC1=NN(C(=O)CC(=O)Nc2ccccc2Cl)C(=O)C1N=Nc1ccc(S(=O)(=O)c2ccc(N=NC3C(=O)N(C(=O)CC(=O)Nc4ccccc4Cl)N=C3C)cc2)cc1 (stereo not drawn),> 100 µM,> 100 µM,> 100 µM,> 100 µM,> 100 µM,> 100 µM,> 100 µM,> 100 µM,> 100 µM,–,–
CCCC(O)c1cn(C(NC(=O)c2ccccc2)P(=O)(OCC)OCC)nn1 (stereo not drawn),> 100 µM,> 100 µM,> 100 µM,> 100 µM,> 100 µM,> 100 µM,> 100 µM,> 100 µM,> 100 µM,–,–
CC1(C)C(CCO)CC1n1cc(I)c(=O)[nH]c1=O (stereo not drawn),> 100 µM,> 100 µM,> 100 µM,> 100 µM,–,> 100 µM,> 100 µM,–,–,–,–
CCOC(=O)c1c(Br)c(-c2ccc(OC)cc2)c(Br)n1C,95.8 µM,> 100 µM,40.2 µM,> 100 µM,> 100 µM,74.8 µM,38.1 µM,83.9 µM,> 100 µM,–,–
C(/Cc1ccc2c(c1)OCO2)=N\NC1=NCCN1,> 100 µM,> 100 µM,> 100 µM,> 100 µM,> 100 µM,> 100 µM,> 100 µM,> 100 µM,> 100 µM,–,–
O=C(NC1CCCCC1)c1cc2ccccc2cc1O,> 100 µM,> 100 µM,> 100 µM,> 100 µM,–,> 100 µM,> 100 µM,–,> 100 µM,–,–
CCOC(=O)c1nc2ccccc2nc1Oc1ccc(C(=O)OC)cc1,> 100 µM,> 100 µM,> 100 µM,> 100 µM,> 100 µM,> 100 µM,> 100 µM,–,> 100 µM,–,–
C(=N\Nc1ccc(-c2nc3ccccc3[nH]2)cc1)/c1c(-c2ccc(Cc3ccccc3)cc2)[nH]c2ccccc12,> 89.1 µM,> 80.8 µM,> 100 µM,10 µM,38 µM,> 100 µM,> 41.3 µM,31.9 µM,19 µM,–,–
O=c1[nH]c2ccccc2c(O)c1/C=N/C(=S)NCc1ccccc1,> 100 µM,> 100 µM,–,–,> 100 µM,> 100 µM,> 100 µM,–,> 100 µM,–,–
CCOC(=O)C[n+]1cccc(C2(c3cc4ccccc4[nH]3)OCCO2)c1,> 100 µM,> 100 µM,> 100 µM,> 100 µM,> 100 µM,> 100 µM,> 100 µM,–,> 100 µM,–,–
Brc1ccc2c3c1[C@H]1O[C@H]1c1cccc(c1-3)[C@@H]1O[C@H]21,34.2 µM,25.6 µM,–,36.8 µM,31.5 µM,36.5 µM,28.8 µM,27.6 µM,–,–,–
CCOC(=O)C(CC(C)C)NC(=O)CSc1nnc(COc2ccc(Cl)cc2)n1-c1ccccc1 (stereo not drawn),23.2 µM,32.4 µM,23.8 µM,35.6 µM,32.1 µM,–,39.7 µM,–,29.2 µM,–,–

SMILES,TGI (UACC-257 melanoma),TGI (DU-145 prostate),TGI (CCRF-CEM leukemia),TGI (SF-268 CNS),TGI (BT-549 breast),TGI (EKVX NSCLC),TGI (KM12 colon),TGI (NCI-H522 lung),TGI (IGROV1 ovarian),GI50 (DU-145 prostate),GI50 (KM12 colon)
Oc1ccc(Cl)cc1-c1cc(-c2ccccc2)nc(NCN2CCCCC2)n1,> 100 µM,> 100 µM,–,> 100 µM,> 100 µM,> 100 µM,> 100 µM,> 100 µM,> 100 µM,–,–
CSc1c(C#N)c(N)nc2c(N=Nc3ccc(Br)cc3)c(N)nn12,21.4 µM,14.9 µM,10.2 µM,13.2 µM,37.3 µM,23.9 µM,23.6 µM,12 µM,8.82 µM,–,–
C=CC(OC(C)=O)c1ccc(OC(=O)C(C)C)c(OC)c1 (stereo not drawn),23.5 µM,24.5 µM,5.03 µM,38.9 µM,16.4 µM,16.6 µM,7.2 µM,3.01 µM,28.7 µM,–,–
CSCCCS/C1=C/CCCCCCCCCC1,> 100 µM,> 100 µM,–,> 100 µM,–,> 100 µM,> 100 µM,–,> 100 µM,–,–
CN(C)c1ccc(C=C2C(=O)N(c3ccccc3)N(c3ccccc3)C2=O)cc1,–,> 100 µM,–,> 100 µM,–,> 100 µM,> 100 µM,> 100 µM,> 100 µM,–,–
COc1cc([C@@H]2c3cc4c(cc3[C@@H](Nc3ccccc3C(=O)c3ccccc3)[C@H]3COC(=O)[C@H]23)OCO4)cc(OC)c1OC,> 100 µM,> 100 µM,> 100 µM,> 100 µM,> 100 µM,> 100 µM,0.653 µM,2.07 µM,90.5 µM,–,–
CC12CC3OC(=O)C1COC14OC5(C2C1=O)C(O)(CCC1C4CC2OC24CC=CC(=O)C14C)C(=O)OC35C (stereo not drawn),39.4 µM,27.7 µM,24.1 µM,> 100 µM,9.66 µM,> 100 µM,36.5 µM,19.8 µM,42.8 µM,–,–
CSc1cc(-c2ccccn2)nc(-c2ccccn2)c1,15.3 µM,26.6 µM,> 100 µM,> 35.2 µM,6.07 µM,12.3 µM,14.4 µM,9.74 µM,8.99 µM,–,–
O=c1cc(NNc2cccc(F)c2)[nH]c(=O)[nH]1,34.8 µM,> 100 µM,55.9 µM,> 100 µM,> 100 µM,–,> 100 µM,35.3 µM,46.7 µM,–,–
CSC1C(=O)Nc2ccc3ccccc3c21 (stereo not drawn),44.8 µM,> 100 µM,89.3 µM,38 µM,50.7 µM,38.2 µM,35.5 µM,7.29 µM,33.3 µM,–,–
CCCCCc1cc2cc3c(c(O)c2c(=O)[nH]1)C1(CCC3)C(O)=c2c(=O)c3c(=O)cc(OC)c(=O)c=3c(=O)c2=C1O (stereo not drawn),4.64 µM,3.34 µM,> 18.7 µM,3.63 µM,3.33 µM,2.83 µM,4.22 µM,1.87 µM,3.48 µM,–,–
COc1cc2cc(C(=O)N3CC(CCl)c4c3cc(NC(=O)OCc3ccc([N+](=O)[O-])cc3)c3ccccc43)[nH]c2c(OC)c1OC (stereo not drawn),> 100 µM,18 µM,> 57.6 µM,> 81.2 µM,> 100 µM,> 100 µM,> 74.2 µM,> 76.7 µM,> 90 µM,–,–
CCCCCCCCCCCCc1ccc(S(=O)(=O)O)cc1.[Zn+2],> 100 µM,> 100 µM,> 100 µM,> 100 µM,–,> 100 µM,> 100 µM,–,77.2 µM,–,–
NNc1nncc2[nH]cnc12,> 100 µM,> 100 µM,> 100 µM,> 100 µM,> 100 µM,> 100 µM,> 100 µM,–,> 100 µM,–,–
COc1ccc(/C=C2\CCS(=O)(=O)c3ccccc3C2=O)cc1OC,> 100 µM,> 100 µM,> 100 µM,> 100 µM,76.2 µM,> 100 µM,> 100 µM,–,72.1 µM,–,–
O=C(CCCCCCCCC(=O)N1C(=O)CC(=O)N(c2ccccc2)C1=S)N1C(=O)CC(=O)N(c2ccccc2)C1=S,> 100 µM,> 100 µM,> 100 µM,> 100 µM,> 100 µM,> 100 µM,> 100 µM,> 100 µM,–,–,–
CCOP(=O)(OCC)C(c1ccccc1)N(C(=O)NC(F)(F)F)c1cccc(F)c1 (stereo not drawn),> 100 µM,> 100 µM,> 100 µM,> 100 µM,–,> 100 µM,> 100 µM,> 100 µM,> 100 µM,–,–
COc1ccc2c(c1)C/C(=C\c1cccc3ccccc13)C2=O,–,–,> 100 µM,> 100 µM,> 100 µM,> 100 µM,> 100 µM,–,> 100 µM,–,–
Cc1cn(C2CC(N)C(C(=O)NCC(=O)O)O2)c(=O)[nH]c1=O (stereo not drawn),–,> 100 µM,> 100 µM,> 100 µM,> 100 µM,> 100 µM,> 100 µM,> 100 µM,> 100 µM,–,–
C[n+]1c(-c2ccc(/C=N/Nc3ccnc(N/N=C/c4ccc(-c5cn6ccsc6[n+]5C)cc4)n3)cc2)cn2ccsc21,76.2 µM,82 µM,44.2 µM,–,78.5 µM,45.7 µM,> 100 µM,> 100 µM,> 100 µM,–,–
CN(CCO)CCCC1COc2ccccc2O1 (stereo not drawn),> 100 µM,> 100 µM,> 100 µM,45.4 µM,> 100 µM,> 100 µM,–,> 100 µM,> 100 µM,–,–
C=CCN1C(=O)/C(=C/c2ccco2)N=C1SC1OC(COC(C)=O)C(OC(C)=O)C(OC(C)=O)C1OC(C)=O (stereo not drawn),> 100 µM,> 100 µM,–,–,> 100 µM,> 100 µM,> 100 µM,51.7 µM,> 100 µM,–,–
COc1ccc(-c2ccc(-c3ccc(C(=N)N)nc3)s2)cc1Cl,–,3.15 µM,–,–,–,–,3.32 µM,–,–,1.77 µM,1.81 µM
COc1ccc(NC(=O)CC(=O)n2nc(C)c(N=Nc3cccc(C)c3)c2C)cc1,–,> 100 µM,> 100 µM,> 100 µM,> 100 µM,> 100 µM,> 100 µM,> 100 µM,–,–,–
